# From US12117455B2, “Early detection marker for degenerative osteoarthritis with TRIM24-RIP3 axis” (AJOU UNIVERSITY INDUSTRY-ACADEMIC COOPERATION FOUNDATION, priority 2020, dated 2024)
# “Also recorded” adds a separate entry of the source. Where a SMILES comes first, the peptide text is derived from it. The star is where a group is joined. Cbz = O=C(OCc1ccccc1)*
# Assays:
# chondrocytes = test: Cell viability / cytotoxicity by LDH assay in chondrocytes; type: cell-based, mouse; details: for cytotoxic effects on chondrocytes (LDH release assay, Western blotting, phase-contrast microscopy): chondrocytes infected with Ad-C or Ad-Rip3
# Experimental: Mouse articular chondrocytes were isolated from the cartilage of ICR mice on the 5th day after birth, enzymatically digested with protease and collagenase, and then maintained in DMEM (Capricorn Scientific GmbH: Hessen, Germany) supplemented with 10% FBS, 100 units/mL penicillin and 100 μg/mL streptomycin. On the 3rd day, cells (4.25×10^5 cells/well) were infected with adenovirus or treated with recombinant protein. Mlkl+/+ and Mlkl−/− MEFs were maintained in DMEM supplemented with 10% FBS and penicillin-streptomycin. Cell viability was assessed using a lactate dehydrogenase (LDH) colorimetric assay kit (Bio Vision (Milpitas, CA, USA)). Chondrocytes were dispensed into a 96-well dish (1.5×10^4 cells/well), cultured for 24 hours (5% CO2, 37° C.), and treated with various concentrations of AZ-628, selumetinib, and neratinib for 24 hours. The supernatant was analyzed using a microplate reader at 495 nm. Untreated (100% viable) and Triton X-100 treated (0% viable) samples were used for normalization. The viability was calculated as follows.
# [1] = test system: RIP3-overexpressing chondrocytes; test: MMP3, MMP13 and COX2 expression (RT-PCR, qPCR, Western blotting) in Ad-Rip3-infected chondrocytes; type: cell-based, mouse
# Experimental: (§1) Mouse articular chondrocytes were isolated from the cartilage of ICR mice on the 5th day after birth, enzymatically digested with protease and collagenase, and then maintained in DMEM (Capricorn Scientific GmbH: Hessen, Germany) supplemented with 10% FBS, 100 units/mL penicillin and 100 μg/mL streptomycin. On the 3rd day, cells (4.25×10^5 cells/well) were infected with adenovirus or treated with recombinant protein. Mlkl+/+ and Mlkl−/− MEFs were maintained in DMEM supplemented with 10% FBS and penicillin-streptomycin.
# (§2) Cells were lysed in an M2 buffer, and mouse tissues were lysed in a lysis buffer containing 50 mM Tris-HCl (pH 7.5), 150 mM NaCl, 50 mM NaF, 1% Tween 20, 0.2% NP-40, and a protease inhibitor. Equal amounts of cell extracts were separated using SDS-PAGE (6% stacking gel and 10% running gel) and analyzed through immunoblotting.
# Total RNA was extracted from articular chondrocytes using a TRIzol reagent (Molecular Research Center (Cincinnati, OH, USA)) and then reverse-transcribed into complementary DNA (cDNA) using ImProm-II™ Transcriptase (Promega (Madison, WI, USA)), followed by amplification through PCR or qPCR using the primers shown in Table 2 below. qPCR was performed using SYBR premix Ex Taq (TaKaRa Bio., Kusatsu, Shiga, Japan), and the results thereof were normalized to Gapdh and represented as fold changes compared to controls.
# RIP3 = target: T1, RIP3 (Mus musculus, UniProt Q9QZL0); test: RIP3 kinase activity / RIP3 phosphorylation by Western blotting in Ad-Rip3-infected chondrocytes; type: cell-based; details: RIP3-overexpressing chondrocytes
# T1 construct: host or cells: primary mouse articular chondrocytes (ICR mice), adenoviral infection
# T1 sequence (Q9QZL0 whole entry): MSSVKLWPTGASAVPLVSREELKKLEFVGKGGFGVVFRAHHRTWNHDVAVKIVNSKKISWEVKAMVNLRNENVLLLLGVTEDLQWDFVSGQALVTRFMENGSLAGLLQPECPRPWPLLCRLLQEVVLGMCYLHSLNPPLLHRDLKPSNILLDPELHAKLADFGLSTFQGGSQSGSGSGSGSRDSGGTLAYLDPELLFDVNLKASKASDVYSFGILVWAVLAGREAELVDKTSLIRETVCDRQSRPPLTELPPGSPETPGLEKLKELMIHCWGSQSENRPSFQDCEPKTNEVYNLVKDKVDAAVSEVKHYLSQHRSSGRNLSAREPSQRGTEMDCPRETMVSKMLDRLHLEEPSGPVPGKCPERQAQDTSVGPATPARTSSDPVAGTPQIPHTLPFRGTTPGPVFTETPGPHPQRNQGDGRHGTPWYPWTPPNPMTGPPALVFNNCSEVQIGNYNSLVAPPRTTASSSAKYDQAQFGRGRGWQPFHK
# Experimental: as §1, §2
# MLKL = MLKL protein levels in chondrocytes treated with proteasome or lysosome inhibitors (Western blotting); type: cell-based, mouse; details: treatment for 6 hours
# Experimental: as §2
Compound,"cytotoxic effects on chondrocytes (LDH release assay, Western blotting, phase-contrast microscopy) (chondrocytes)",MLKL protein levels (MLKL),other results
Cc1ccc(NC(=O)c2cccc(C(C)(C)C#N)c2)cc1Nc1ccc2ncn(C)c(=O)c2c1 [AZ-628],without chondrocyte toxicity,,"cytotoxic effects in chondrocytes (LDH assay) (chondrocytes; at 2 μM, 24 hours): no toxicity; inhibition of osteoarthritis manifestations in RIP3-overexpressing chondrocytes ([1]; compared with selumetinib or neratinib): more effectively inhibited; Mmp3 and Cox2 expression (osteoarthritis-related gene expression) ([1]; qPCR, RIP3-overexpressing chondrocytes treated with RIP3 kinase inhibitors): decreased; also recorded: attenuated; RIP3 (kinase) activity (RIP3): potent RIP3 kinase inhibitor; also recorded: attenuates RIP3 kinase activity"
"CCN(CC)CCCC(C)Nc1ccnc2cc(Cl)ccc12 (stereo not drawn) [CQ, Chloroquine diphosphate]",,did not change,
HS-1371,greater cytotoxic effects on chondrocytes than AZ-628,,
CC(C)S(=O)(=O)c1ccc2nccc(Nc3ccc4scnc4c3)c2c1 [GSK 872],greater cytotoxic effects on chondrocytes than AZ-628,,
CC(C)C[C@@H](C=O)NC(=O)[C@H](CC(C)C)NC(=O)[C@H](CC(C)C)NC(=O)OCc1ccccc1 [MG132] (Cbz-Leu-Leu-Leu-aldehyde),,did not change,
